These are literature values, as cited in patent US20110236503A1, “Topical Skincare Composition” (COSMALABS INTERNATIONAL, LLC, priority 2010, published 2011).

The conditions of this series: topical composition having 5% benzoyl peroxide vs erythromycin and clindamycin formulations.

As for `O=C(OOC(=O)c1ccccc1)c1ccccc1` [benzoyl peroxide, Benzoyl peroxide], the “effectiveness for acne compared with other topical antimicrobials” value was “at least as effective for acne as erythromycin and clindamycin formulations”.
